# Data as given in BindingDB's records for doi:10.1111/cbdd.12342 (Zhejiang University, 2014).
# pIC50: −log10 of the molar value.
# Molecular target: T1, Proteasome subunit beta type-5 (Homo sapiens, UniProt P28074)
# T1 sequence (P28074 whole entry): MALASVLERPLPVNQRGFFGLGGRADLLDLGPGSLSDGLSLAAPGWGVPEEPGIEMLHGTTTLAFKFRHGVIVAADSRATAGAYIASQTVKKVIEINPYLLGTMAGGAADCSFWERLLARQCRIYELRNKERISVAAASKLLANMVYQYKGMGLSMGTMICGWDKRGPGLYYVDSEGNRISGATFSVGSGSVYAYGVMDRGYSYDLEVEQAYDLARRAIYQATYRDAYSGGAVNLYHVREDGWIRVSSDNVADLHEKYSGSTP
# Test: 20S proteasome chymotrypsin-like inhibition assay
row,SMILES,pIC50
1,CC(C)C[C@H](NC(=O)CC(NC(=O)c1ccc(F)cc1)c1ccccc1)C(=O)N[C@@H](CC(C)C)C(=O)[C@@]1(C)CO1 (some centres undefined) [4-Fluoro-N-{3-{S-4-methyl-1-[S-4-methyl-1-(R-2-methyloxiran-2-yl)-1-oxopentan-2-ylamino]-1-oxopentan-2-ylamino}-3-oxo-1-phenylpropyl} benzamide (21d)],6.01
2,COc1ccc(C(=O)NC(CC(=O)N[C@@H](CC(C)C)C(=O)N[C@@H](CC(C)C)C(=O)[C@@]2(C)CO2)c2ccccc2)cc1 (some centres undefined) [4-Methoxy-N-{3-{S-4-methyl-1-[S-4-methyl-1-(R-2-methyloxiran-2-yl)-1-oxopentan-2-ylamino]-1-oxopentan-2-ylamino}-3-oxo-1-phenylpropyl} benzamide (21e)],6.00
3,CC(C)C[C@H](NC(=O)CC(NC(=O)c1ccccc1)c1ccccc1)C(=O)N[C@@H](CC(C)C)C(=O)[C@@]1(C)CO1 (some centres undefined) [N-{3-{S-4-Methyl-1-[S-4-methyl-1-(R-2-methyloxiran-2-yl)-1-oxopentan-2-ylamino]-1-oxopentan-2-ylamino}-3-oxo-1-phenylpropyl} benzamide (21c)],5.85
4,CC(C)C[C@H](NC(=O)CC(NC(=O)c1cccnc1)c1ccccc1)C(=O)N[C@@H](CC(C)C)C(=O)[C@@]1(C)CO1 (some centres undefined) [N-{3-{S-4-Methyl-1-[S-4-methyl-1-(R-2-methyloxiran-2-yl)-1-oxopentan-2-ylamino]-1-oxopentan-2-ylamino}-3-oxo-1-phenylpropyl} nicotinamide (21b)],5.73
